Data from paper PMC3435281 (PLoS ONE, 2012).

How the values were obtained:
murine AHR^d [1] = test: EROD activity in AHR^d-15 cells (rat hepatoma BP8 stably transfected with AHR^d); details: 5L versus AHR^d-15 cells, 40 hours
Excerpt: (§1) The 100 “hit compounds” from the primary screen were subsequently screened for their capacity to activate the low-affinity murine AHR^d receptor isoform using the activity of the endogenous Cyp1a1 gene as a readout. To this end, we established a hepatoma cell line that expresses the AHR^d receptor isoform derived from the DBA/2J mouse. An AHR^d-expressing cell line was generated by stably transfecting the AHR^d cDNA into the rat hepatoma AHR-deficient cell line, BP8 [15]. After stable selection with G418, a subclone (AHR^d-15) was analyzed for receptor expression and function. […] To confirm that the AHR^d-15 clone expressed a functional low affinity AHR^d isoform, we examined the receptor-mediated response to the prototype agonists, TCDD and β-naphthoflavone (BNF).
(§2) To test the ability of the 100 AHR inducers to activate the AHR^d-15 cells, they were treated with each of the compounds at the dose of 1 µM, for 36 hours in 96-well plates.
(§3) Figure 3 In Vitro dose response curves. A. Rat hepatoma cell lines bearing the murine AHR^d (AHR^d-15) or the rat AHR^b (5L) were incubated with increasing doses of TCDD in 96-well plates. After 40 hours, EROD activity was performed from whole cell lysate. (n = 3). […] (n = 3). C. Same assay as in A, with increasing doses of BNF. (n = 2). […] Following 48 hours, hepatic microsomal proteins were isolated and used for the assessment of EROD activity. Animals were treated in groups of 4. Error bars: S.D.
(§4) The open reading frame of the AHR^d gene (PL2047) was amplified by PCR using oligos OL5127 (5′-[…]-3′) and OL5128 (5′-[…]-3′). The product was ligated into the pTARGET™ mammalian expression vector (Promega, Madison, WI). The resulting plasmid was transfected into the AHR-deficient cell line, BP8 [15], using Effectene transfection reagent (Qiagen Inc., Valencia, CA). Stable integrants were selected with 6 mg/ml of G418 for 2 weeks, beginning at 48-hours post-transfection. Clones derived from single cells were screened for their response to nanomolar doses of dioxin or micromolar doses of BNF, as measured by ethoxyresorufin O-deethylase (EROD) activity. […] The validated cell line used in these studies was designated line AHR^d-15.
(§5) High-throughput analysis of EROD activity was assayed by adapting a protocol that was described elsewhere, [63]. Briefly, cells were seeded into 96-well plates at ∼ 60% density and treated with the test compounds for 36 hours. The cells were washed with PBS and lysed with 30 µL water and a cycle of freeze-thaw. To each well, 150 µL of 50 mM Hepes buffer containing 26.7 µM dicumarol and 13.3 µM ethoxyresorufin were added. The samples were incubated at 30°C for 20 minutes, and 50 µL of 0.5 mM β-NADPH were added to initiate the reaction. Fluorescence of the resorufin product was detected using the 544 nm excitation and 590 nm emission wavelength filter set.

naïve T cells = test: Naïve T cells in Th17 conditions, IL-17 ELISA of supernatant; format: cell-based, mouse; details: TGF-β 4 ng/ml, IL-6 20 ng/ml, 3 days
[2] = test system: AHR^fxneo/fxneo and AHR^fxneo/+ pups; test: In utero exposure, closure of ductus venosus (DV); format: in vivo, mouse; details: dams 110 mg/kg i.p. at E18.5, examined at 4 weeks
Description: We have previously shown that genetically altered mice that express only 10% of the AHR display a patent ductus venosus (DV) in the liver in nearly all cases. We additionally identified that in utero activation of the receptor in the hypomorphs with TCDD successfully closed the DV [5]. […] At 4 weeks of age, the pups were sacrificed, and DV status was examined by hepatic perfusion with trypan blue.
Timed mating of female AHR^fxneo/+ mice to male AHR^fxneo/fxneo mice was performed. […] When the pups were 4 weeks of age, the status of the DV was determined by hepatic perfusion with Trypan Blue as previously described. Briefly, each mouse was anesthetized and its liver was flushed with PBS through the cannulated portal vein. […] Trypan blue was injected through the portal vein until the liver visibly turned blue (in the case of a closed DV) or until the dye was seen exiting the IVC without perfusing the liver (when the DV is open).

human ARNT = test: DRE-luciferase in ARNT-deficient C4 cells transfected with ARNT; format: cell-based; details: ARNT or empty vector, 3 µM, 18 h
rat AHR^b (5L) = molecular target: T1, rat AHR^b (5L) (Rattus norvegicus, UniProt P41738); test: EROD activity in rat hepatoma 5L cells; format: cell-based; details: 5L versus AHR^d-15 cells, 40 hours
T1 construct: endogenous in cells; host or cells: rat hepatoma 5L cells
T1 sequence (P41738 10-853): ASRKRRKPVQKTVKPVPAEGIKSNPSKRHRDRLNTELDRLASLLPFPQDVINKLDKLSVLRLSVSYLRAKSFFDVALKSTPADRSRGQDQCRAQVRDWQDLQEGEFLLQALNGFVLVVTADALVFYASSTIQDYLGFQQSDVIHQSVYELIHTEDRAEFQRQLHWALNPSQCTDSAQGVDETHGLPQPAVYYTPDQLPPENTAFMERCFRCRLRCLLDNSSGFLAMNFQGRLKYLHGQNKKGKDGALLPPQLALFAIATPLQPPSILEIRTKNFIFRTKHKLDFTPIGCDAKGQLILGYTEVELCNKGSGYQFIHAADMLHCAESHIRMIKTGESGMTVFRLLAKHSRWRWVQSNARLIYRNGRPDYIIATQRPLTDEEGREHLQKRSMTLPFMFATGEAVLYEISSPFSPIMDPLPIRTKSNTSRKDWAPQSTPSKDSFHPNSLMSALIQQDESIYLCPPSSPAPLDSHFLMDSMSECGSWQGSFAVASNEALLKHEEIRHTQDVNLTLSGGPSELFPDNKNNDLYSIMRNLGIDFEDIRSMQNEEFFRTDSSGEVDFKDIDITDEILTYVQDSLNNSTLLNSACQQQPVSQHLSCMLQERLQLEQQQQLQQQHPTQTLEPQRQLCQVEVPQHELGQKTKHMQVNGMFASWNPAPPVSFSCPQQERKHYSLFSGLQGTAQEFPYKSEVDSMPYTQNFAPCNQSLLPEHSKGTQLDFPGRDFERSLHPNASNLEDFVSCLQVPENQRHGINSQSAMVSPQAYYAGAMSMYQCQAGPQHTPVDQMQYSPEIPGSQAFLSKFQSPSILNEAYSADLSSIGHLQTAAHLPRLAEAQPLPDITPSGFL
Description: We utilized the wild type rat hepatoma cell line, 5L, which harbors the high affinity AHR isoform, and our newly created AHR^d-15 cell line. […] Groups of control mice were given corn oil alone or BNF at the concentration of 120 mg/kg.
as §3, §5

murine AHR^d [3] = molecular target: T2, murine AHR^d (Mus musculus, UniProt P30561, A375V); test: EROD activity in AHR^d-15 cells (rat hepatoma BP8 stably transfected with AHR^d)
T2 sequence (P30561 10-848 A375V): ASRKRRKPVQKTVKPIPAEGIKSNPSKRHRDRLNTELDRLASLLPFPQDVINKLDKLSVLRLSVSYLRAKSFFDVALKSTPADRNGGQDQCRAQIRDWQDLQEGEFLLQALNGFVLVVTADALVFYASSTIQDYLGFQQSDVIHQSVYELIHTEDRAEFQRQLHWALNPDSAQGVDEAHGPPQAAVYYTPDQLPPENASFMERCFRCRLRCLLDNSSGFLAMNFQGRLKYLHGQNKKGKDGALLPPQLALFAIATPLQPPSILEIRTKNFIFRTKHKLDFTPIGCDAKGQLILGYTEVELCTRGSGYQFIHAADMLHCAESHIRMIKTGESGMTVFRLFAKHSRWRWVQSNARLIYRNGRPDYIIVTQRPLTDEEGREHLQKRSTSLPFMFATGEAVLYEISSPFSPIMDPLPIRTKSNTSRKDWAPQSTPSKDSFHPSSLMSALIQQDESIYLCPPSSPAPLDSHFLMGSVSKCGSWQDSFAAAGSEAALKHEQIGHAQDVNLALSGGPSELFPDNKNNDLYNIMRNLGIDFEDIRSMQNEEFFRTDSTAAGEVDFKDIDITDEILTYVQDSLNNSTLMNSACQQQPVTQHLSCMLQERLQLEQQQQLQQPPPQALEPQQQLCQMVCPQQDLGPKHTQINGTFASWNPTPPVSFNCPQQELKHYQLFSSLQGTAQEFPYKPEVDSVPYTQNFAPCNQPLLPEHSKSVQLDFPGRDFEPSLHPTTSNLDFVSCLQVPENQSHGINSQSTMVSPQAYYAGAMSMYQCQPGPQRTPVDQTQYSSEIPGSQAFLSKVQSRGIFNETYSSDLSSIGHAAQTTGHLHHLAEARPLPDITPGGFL
Excerpt: as §1, §2, §3, §4, §5

SMILES	cytochrome P450 induction (EROD), comparison of the two cell lines (murine AHR^d [1])	IL-17 protein by ELISA in the supernatant (naïve T cells; higher doses)	IL-17 protein by ELISA in the supernatant (naïve T cells; low doses)	closed DV, percent of pups ([2]; AHR^fxneo/+ pups) [%]	closed DV, percent of pups ([2]; AHR^fxneo/fxneo pups) [%]	DRE-luciferase activity (human ARNT)	shift of EROD dose-response to the left for the AHR^b isoform (rat AHR^b (5L))	EC50 (murine AHR^d [3]) [nM]	induction of AHR^d-mediated EROD activity (murine AHR^d [3]; AHR^d-15 cells, positive control 2 nM, 36 hours)
Cc1cc(C)c(C=C2C(=O)Nc3ccccc32)[nH]1 [SU5416, 3-(3,5-dimethyl-1H-pyrrol-2-ylmethylene)-1,3-dihydro-indole-2-one]	equal potency	did not see this effect	small increase	100	59	activity was only seen when ARNT was transfected	–	–	–
Clc1cc2c(cc1Cl)Oc1cc(Cl)c(Cl)cc1O2 [TCDD, 2,3,7,8-tetrachlorodibenzo-p-dioxin]	–	–	–	–	–	–	1.5 orders of magnitude	~30	greater than 5 fold
